Source: EP0271023A2, “Use of dihydrophenylamino-acid derivatives and medicines containing them for immunomodulation and cytostasis” (GÖDECKE AKTIENGESELLSCHAFT, priority 1986, dated 1988)

What was measured:
[1] = system: allogene Hauttransplantate; type: in vivo, Ratte; conditions: for Toxizität / Unverträglichkeit der behandelten Tiere: skin graft model, Tab. I, Azathioprin in äquipotenter Dosis; for Wirksamkeit im Hauttransplantat-Modell (immunsuppressive Aktivität): qualitative statement
Source text: Die mit einer Stanze gewonnenen und vom Panniculus carnosus (einer Fett- und Muskelschicht) präparativ befreiten Transplantate werden in ebenfalls ausgestanzte Transplantatbetten des Empfängertiers plaziert. Die Transplantate werden mit speziellem Verbandmaterial bedeckt und mit einer Bandage fixiert. Endpunkt der Untersuchung ist der Tag, an dem 50 % der Tiere beide Transplantate vollständig abgestoßen haben. Die immunsuppressive Aktivität eines Wirkstoffs wird anhand der Verlängerung des normalen Transplantatüberlebens (Tage) der nicht behandelten Kontrolltiere bestimmt.

[2] = cited from earlier work
boviner Endothelzellen = assay: In vitro migration/motility of endothelial cells under angiogenic stimulus (modified Boyden chamber); type: cell-based, bovine; conditions: for Anzahl der migrierten Zellen Kollagen-Fibronektin-Filter / Anzahl der migrierten Zellen Kollagen-Filter: Präinkubation + (Gangliosid-Mischung), innerhalb 8 Stunden, Mittelwert (± Standardabweichung) von 3 Versuchen
Source text: Es wurde daher eine Untersuchung mit Cefradin als Modellsubstanz auf eine die Gefäßbildung hemmende Aktivität in einem hierzu geeigneten in vitro Model durchgeführt (s. Tab. II). In diesem Test wird der Einfluß auf die Motilität boviner Endothelzellen unter angiogenem (gefäßbildendem) Stimulus bestimmt.

Row | SMILES | Toxizität / Unverträglichkeit der behandelten Tiere [1] | Wirksamkeit im Hauttransplantat-Modell (immunsuppressive Aktivität) [1] | Nierentoxizität ([2]; im Tierversuch, länger dauernde hochdosierte Anwendung) | leukopenische Wirkung ([2]; in vivo) | Ausbildung der Gefäßverbindung zwischen Transplantatbett und Transplantat ([1]; höchste Cefradin Dosis, in controls established by about the 5th postoperative day) | Anzahl der migrierten Zellen Kollagen-Fibronektin-Filter (boviner Endothelzellen; Cefradin 10 µg/ml Medium) | Anzahl der migrierten Zellen Kollagen-Filter (boviner Endothelzellen; Cefradin 10 µg/ml Medium) | Anzahl der migrierten Zellen Kollagen-Fibronektin-Filter (boviner Endothelzellen; Cefradin 100 µg/ml Medium) | Anzahl der migrierten Zellen Kollagen-Filter (boviner Endothelzellen; Cefradin 100 µg/ml Medium) | Anzahl der migrierten Zellen Kollagen-Fibronektin-Filter (boviner Endothelzellen; Cefradin 1000 µg/ml Medium) | Anzahl der migrierten Zellen Kollagen-Filter (boviner Endothelzellen; Cefradin 1000 µg/ml Medium) | Aktivität auf die Motilität boviner Endothelzellen (boviner Endothelzellen; concentration range corresponding to the low, already immunosuppressive in vivo doses) | Inhibition der Endothelmotilität (boviner Endothelzellen; in hoher, bereits zytotoxischer Konzentration)
1 | Cn1cnc([N+](=O)[O-])c1Sc1ncnc2nc[nH]c12 [Azathioprin, 6[(1-Methylnitroimidazol-5-yl)thio]purin] | ausgeprägt toxisch | – | – | – | – | – | – | – | – | – | – | – | –
2 | CC1=C(C(=O)O)N2C(=O)[C@@H](NC(=O)[C@H](N)c3ccc(O)cc3)[C@H]2SC1 [Cefadroxil] | – | Unwirksamkeit | – | – | – | – | – | – | – | – | – | – | –
3 | CC1=C(C(=O)O)N2C(=O)C(NC(=O)C(N)C3=CCC=CC3)C2SC1 (stereo not drawn) [Cefradin] | keinerlei Unverträglichkeit | außerordentlich wirksam | keine Nierentoxizität | nicht leukopenisch | unterdrückte | 306 ± 74 | 173 ± 29 | 256 ± 24 | 104 ± 3 | 51 ± 6 | 23 ± 8 | nur geringfügige, wenn auch dosisabhängige Aktivität | komplette Inhibition
